Measurements reported in patent US9777005B2 (Takeda Pharmaceutical Company Limited, priority 2012, dated 2017).

Biological target: T1, human M1 receptor (hCHRM1) (Homo sapiens, UniProt P11229)
T1 construct: expressed in transfected cells; host or cells: CHO-K1
T1 sequence (P11229 1-460): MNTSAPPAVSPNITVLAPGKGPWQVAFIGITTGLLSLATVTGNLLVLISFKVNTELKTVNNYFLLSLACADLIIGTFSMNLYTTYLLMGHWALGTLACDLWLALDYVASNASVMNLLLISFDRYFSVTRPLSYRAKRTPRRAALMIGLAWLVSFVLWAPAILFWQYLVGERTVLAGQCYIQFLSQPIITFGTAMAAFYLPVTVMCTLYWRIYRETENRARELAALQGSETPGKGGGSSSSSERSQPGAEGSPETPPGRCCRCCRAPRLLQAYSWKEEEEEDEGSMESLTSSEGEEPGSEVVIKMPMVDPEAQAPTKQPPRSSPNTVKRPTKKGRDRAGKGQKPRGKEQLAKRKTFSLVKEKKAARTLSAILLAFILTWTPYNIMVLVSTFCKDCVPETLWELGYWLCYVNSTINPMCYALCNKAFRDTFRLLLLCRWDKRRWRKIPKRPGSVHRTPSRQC
Test: Measurement of M1 receptor positive allosteric modulator (M1PAM) activity, calcium fluorescence (FLIPRtetra) in CHO-K1 cells in the presence of acetylcholine at EC20
Format: cell-based
Conditions: in the presence of acetylcholine at EC20 (final 0.6 nM), CHO-K1 cells expressing hCHRM1; for EC50: inflection point of M1PAM activity, read-out: IP value; for activity (%) at 10 μM: test compound 10 μM
Procedure, shortened: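 PAM activity was measured as calcium flux by FLIPRtetra over 1 min after co-addition of compound and EC20 acetylcholine (final 0.6 nM) to Fluo-4-loaded hCHRM1 CHO-K1 cells. The response was scaled between DMSO (0%) and 1 μM acetylcholine (100%), and the inflection point of the concentration curve gives the IP value.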

SMILES | EC50 | activity (%) at 10 μM
Cc1cc(-c2ccc(CN3Cc4cccc(Oc5c(F)cc(C#N)cc5F)c4C3=O)cc2)cnn1 [Example 398, 3,5-difluoro-4-((2-(4-(6-methylpyridazin-4-yl)benzyl)-3-oxo-2,3-dihydro-1H-isoindol-4-yl)oxy)benzonitrile] | 20 nM | 99%
CNC(=O)c1ccc(CN2Cc3ccnc(Oc4ccc(C)cc4F)c3C2=O)cc1F [Example 437, 2-fluoro-4-((4-(2-fluoro-4-methylphenoxy)-3-oxo-1,3-dihydro-2H-pyrrolo[3,4-c]pyridin-2-yl)methyl)-N-methylbenzamide] | 78 nM | 98%
Cc1cc(-c2ccc(CN3Cc4ccnc(O[C@@H]5CCC[C@H]5O)c4C3=O)cc2)ccn1 (single isomer, unassigned) [Example 243, 4-((trans-2-hydroxycyclopentyl)oxy)-2-(4-(2-methylpyridin-4-yl)benzyl)-1,2-dihydro-3H-pyrrolo[3,4-c]pyridin-3-one] | 37 nM | 104%
Cc1cc(C(F)(F)F)cc(F)c1Oc1nccc2c1C(=O)N(Cc1ccc(-c3ccn(C)n3)cc1)C2 [Example 421, 4-(2-fluoro-6-methyl-4-(trifluoromethyl)phenoxy)-2-(4-(1-methyl-1H-pyrazol-3-yl)benzyl)-1,2-dihydro-3H-pyrrolo[3,4-c]pyridin-3-one] | 39 nM | 112%
Cc1nn(C)cc1-c1ccc(CN2Cc3cccc(OCC45CCC(CC4)O5)c3C2=O)cc1 [Example 354, 2-(4-(1,3-dimethyl-1H-pyrazol-4-yl)benzyl)-7-((7-oxabicyclo[2.2.1]hept-1-yl)methoxy)isoindolin-1-one] | 270 nM | 93%
NC(=O)c1ccc(CN2Cc3ccnc(Oc4ccc(CC(F)(F)F)cc4F)c3C2=O)cc1 [Example 458, 4-((4-(2-fluoro-4-(2,2,2-trifluoroethyl)phenoxy)-3-oxo-1,3-dihydro-2H-pyrrolo[3,4-c]pyridin-2-yl)methyl)benzamide] | 12 nM | 93%
Cn1cc(-c2ccc(CN3Cc4cccc(OCC5CCCO5)c4C3=O)cc2)cn1 (stereo not drawn) [Example 5, 2-(4-(1-methyl-1H-pyrazol-4-yl)benzyl)-7-((tetrahydrofuran-2-yl)methoxy)isoindolin-1-one] | 20 nM | 102%
CCC(CO)Oc1nccc2c1C(=O)N(Cc1ccc(-c3cn(C)nc3C)cc1)C2 (single isomer, unassigned) [Example 274, 2-(4-(1,3-dimethyl-1H-pyrazol-4-yl)benzyl)-4-((l-hydroxybutan-2-yl)oxy)-1,2-dihydro-3H-pyrrolo[3,4-c]pyridin-3-one] | 12 nM | 102%
C[C@@H](O)[C@@H](C)Oc1nccc2c1C(=O)N(Cc1c(F)cc(F)cc1F)C2 [Example 425, 4-(((2R,3R)-3-hydroxybutan-2-yl)oxy)-2-(2,4,6-trifluorobenzyl)-1,2-dihydro-3H-pyrrolo[3,4-c]pyridin-3-one] | 86 nM | 102%
Cc1nn(C)cc1-c1ccc(CN2Cc3ccnc(Oc4cc(C(C)(C)O)ccc4F)c3C2=O)cc1 [Example 312, 2-(4-(1,3-dimethyl-1H-pyrazol-4-yl)benzyl)-4-(2-fluoro-5-(2-hydroxypropan-2-yl)phenoxy)-1,2-dihydro-3H-pyrrolo[3,4-c]pyridin-3-one] | 39 nM | 96%
Cn1ccc(-c2ccc(CN3Cc4ccnc(Oc5c(F)cc(C#N)cc5F)c4C3=O)cc2)n1 [Example 375, 3,5-difluoro-4-((2-(4-(1-methyl-1H-pyrazol-3-yl)benzyl)-3-oxo-2,3-dihydro-1H-pyrrolo[3,4-c]pyridin-4-yl)oxy)benzonitrile] | 10 nM | 99%
O=C1c2c(ccnc2O[C@H]2CCCC[C@@H]2O)CN1Cc1ccc(Cl)s1 (relative stereo) [Example 401, 2-((5-chloro-2-thienyl)methyl)-4-((trans-2-hydroxycyclohexyl)oxy)-1,2-dihydro-3H-pyrrolo[3,4-c]pyridin-3-one] | 48 nM | 92%
Cn1cc(-c2ccc(CN3Cc4nccc(OCC5CCCO5)c4C3=O)cc2)cn1 (stereo not drawn) [Example 59, 6-(4-(1-methyl-1H-pyrazol-4-yl)benzyl)-4-((tetrahydrofuran-2-yl)methoxy)-6,7-dihydro-5H-pyrrolo[3,4-b]pyridin-5-one] | 57 nM | 136%
Cn1cc(-c2ccc(CN3Cc4ccnc(Oc5cc(C(C)(C)O)ccc5F)c4C3=O)cc2)cn1 [Example 308, 4-(2-fluoro-5-(2-hydroxypropan-2-yl)phenoxy)-2-(4-(1-methyl-1H-pyrazol-4-yl)benzyl)-1,2-dihydro-3H-pyrrolo[3,4-c]pyridin-3-one] | 44 nM | 99%
Cn1cc(-c2ccc(CN3Cc4ccnc(OC5CCC5)c4C3=O)cc2)nn1 [Example 335, 4-(cyclobutyloxy)-2-(4-(1-methyl-1H-1,2,3-triazol-4-yl)benzyl)-1,2-dihydro-3H-pyrrolo[3,4-c]pyridin-3-one] | 57 nM | 98%
CCc1ccc(Oc2nccc3c2C(=O)N(Cc2ccc(C(=O)NC)c(F)c2)C3)c(F)c1 [Example 443] | 31 nM | 101%
Cn1ccc(-c2ccc(CN3Cc4ccnc(OCC5CCCO5)c4C3=O)c(F)c2)n1 (stereo not drawn) [Example 230, 2-(2-fluoro-4-(1-methyl-1H-pyrazol-3-yl)benzyl)-4-((tetrahydrofuran-2-yl)methoxy)-1,2-dihydro-3H-pyrrolo[3,4-c]pyridin-3-one] | 10 nM | 113%
Cc1nn(C)cc1-c1ccc(CN2Cc3cccc(O[C@H]4CCC[C@@H]4O)c3C2=O)cc1 (relative stereo) [Example 226, 2-(4-(1,3-dimethyl-1H-pyrazol-4-yl)benzyl)-7-((trans-2-hydroxycyclopentyl)oxy)isoindolin-1-one] | 30 nM | 98%
CCC(CO)Oc1nccc2c1C(=O)N(Cc1ccc(-c3cn(C)nc3C)cc1)C2 (single isomer, unassigned) [Example 275, 2-(4-(1,3-dimethyl-1H-pyrazol-4-yl)benzyl)-4-((l-hydroxybutan-2-yl)oxy)-1,2-dihydro-3H-pyrrolo[3,4-c]pyridin-3-one] | 76 nM | 104%
CNC(=O)c1ccc(CN2Cc3cccc(Oc4ccc(C(F)(F)F)cc4F)c3C2=O)cc1 [Example 439, 4-((7-(2-fluoro-4-(trifluoromethyl)phenoxy)-1-oxo-1,3-dihydro-2H-isoindol-2-yl)methyl)-N-methylbenzamide] | 13 nM | 96%
CNC(=O)c1ccc(CN2Cc3ccnc(Oc4ccc(C5CC5)cc4F)c3C2=O)cc1 [Example 447, 4-((4-(4-cyclopropyl-2-fluorophenoxy)-3-oxo-1,3-dihydro-2H-pyrrolo[3,4-c]pyridin-2-yl)methyl)-N-methylbenzamide] | 5.2 nM | 93%
O=C1c2c(ccnc2OCC2CCCO2)CN1Cc1ccc(-c2cc[nH]n2)cc1 (stereo not drawn) [Example 333, 2-(4-(1H-pyrazol-3-yl)benzyl)-4-((tetrahydrofuran-2-yl)methoxy)-1,2-dihydro-3H-pyrrolo[3,4-c]pyridin-3-one] | 21 nM | 114%
O=C1c2c(ccnc2O[C@@H]2CCCC[C@H]2O)CN1Cc1cccc(F)c1 (single isomer, unassigned) [Example 321, 2-(3-fluorobenzyl)-4-((trans-2-hydroxycyclohexyl)oxy)-1,2-dihydro-3H-pyrrolo[3,4-c]pyridin-3-one] | 32 nM | 104%
CNC(=O)c1ccc(CN2Cc3ccnc(Oc4ccc(C(F)(F)F)cc4F)c3C2=O)cc1 [Example 431, 4-((4-(2-fluoro-4-(trifluoromethyl)phenoxy)-3-oxo-1,3-dihydro-2H-pyrrolo[3,4-c]pyridin-2-yl)methyl)-N-methylbenzamide] | 6.8 nM | 103%
COCc1ccc(F)c(Oc2nccc3c2C(=O)N(Cc2ccc(-c4cnn(C)c4)cc2)C3)c1 [Example 302, 4-(2-fluoro-5-(methoxymethyl)phenoxy)-2-(4-(1-methyl-1H-pyrazol-4-yl)benzyl)-1,2-dihydro-3H-pyrrolo[3,4-c]pyridin-3-one] | 32 nM | 92%
Cn1cc(-c2ccc(CN3Cc4cccc(O[C@H]5CCC[C@@H]5O)c4C3=O)cc2)cn1 (relative stereo) [Example 4, 7-((trans-2-hydroxycyclopentyl)oxy)-2-(4-(1-methyl-1H-pyrazol-4-yl)benzyl)isoindolin-1-one] | 13 nM | 101%
Cc1cc(-c2ccc(CN3Cc4cccc(O[C@H]5CCCC[C@@H]5O)c4C3=O)cc2)cnn1 (relative stereo) [Example 355, 7-((trans-2-hydroxycyclohexyl)oxy)-2-(4-(6-methylpyridazin-4-yl)benzyl)isoindolin-1-one] | 4.3 nM | 95%
